Assay results taken from patent US20250339569A1, “CARBONIC ANHYDRASE IX LIGANDS” (priority 2021, published 2025).
Read-outs that look alike come from different tables or passages of the source. Starred links: 1 amine or outer side, 2 acyl side, 3 side chain; linkers in the order of their positions; H or OH if unused. Positions of bridges follow the written chain, without caps; N, C: chain ends. Non-standard residues stand in square brackets, D forms with d. Residues, ends and D or L forms follow the SMILES beside them. *: point of attachment. NH(CH2)3NH(O2Oc(DOTA)) = O=C(O)CN1CCN(CC(=O)O)CCN(CC(=O)NCCOCCOCC(=O)NCCCN*)CCN(CC(=O)O)CC1; NH(CH2)3NHDOTA = O=C(O)CN1CCN(CC(=O)O)CCN(CC(=O)NCCCN*)CCN(CC(=O)O)CC1; NH(1-deoxy-D-glucityl) = OC[C@@H](O)[C@@H](O)[C@H](O)[C@@H](O)CN*; DOTA = O=C(O)CN1CCN(CC(=O)O)CCN(CC(=O)*)CCN(CC(=O)O)CC1; mXylylene = c1cc(C[*:1])cc(C[*:2])c1; Orn(Me2) = CN(C)CCC[C@H](N)C(=O)O; Trx = NC[C@H]1CC[C@H](C(=O)O)CC1; X2 = O=C(CN1CCC(N[*:1])CC1)[*:2]; Ac6c = NC1(C(=O)O)CCCCC1; Dap = NC[C@H](N)C(=O)O; Bn = c1ccc(C*)cc1

Legend:
[1] = Plasma stability assay, mouse plasma; details: mouse plasma, 37°C
[2] = molecular target: T1, human carbonic anhydrase IX (hCAIX-Fc) (Homo sapiens, UniProt Q16790); test: Surface plasmon resonance assay with hCAIX-Fc; assay type: binding; details: 25° C.; for t1/2 category (activity): SPR dissociation half-life, hCAIX-Fc; for Kd: SPR, hCAIX-Fc captured, read-out: pKD category (activity) (converted)
T1 construct: purchased SinoBliological (Sino Biological) 10107-H02H

[3] = molecular target: T2, CAIX-expressing human HT-29 colorectal cancer cells (Homo sapiens, UniProt Q16790); test: FACS binding assay (IC50 determination, competition with tracer 3BP-2776 or 3BP-4149); details: 4° C., 1 hour, read-out: pIC50 category (activity) (converted)
T2 construct: CAIX-expressing human HT-29 colorectal cancer cells; host or cells: HT-29 human colorectal cancer cells
In short: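 HT-29 cells in FACS buffer (PBS, 1% FCS) at 500.000 cells/ml were exposed to compounds competing with a labelled tracer, with biotinylated compounds detected by 1 μg/mL APC-streptavidin for 30 min on ice. APC/Cy5 median fluorescence was read by flow cytometry and IC50 derived by 4PL fit.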

[4] = FACS binding assay, HT-29 cells, competition with tracer 3BP-2776 (10 nM, biotin-labeled)
[5] = FACS competition on HT-29 cells, Tracer ID 3BP-2776 (10 nM, biotin-labeled)

SMILES | % intact compound remaining (incubation time) ([1]; 24 h) | t1/2 category (activity) [2] | Kd [2] | IC50 ([3]; FACS binding assay, HT-29 cells, competition with tracer 3BP-4149 (3 nM, Cy5-labeled)) | IC50 [3, 4] | % intact compound remaining (incubation time) ([1]; 6 h) | IC50 [3, 5]
CC(C)C[C@@H]1NC(=O)[C@H](Cc2c[nH]c3ccccc23)NC(=O)[C@H](CC(=O)O)NC(=O)[C@H]2CCCN2C(=O)[C@H](CCC(=O)O)NC(=O)[C@@H](NC(=O)[C@H](Cc2ccc(O)cc2)NC(=O)[C@@H](NC(=O)CN2CCC(NC(=O)CN3CCN(CC(=O)O)CCN(CC(=O)O)CCN(CC(=O)O)CC3)CC2)C(C)C)CSCc2cccc(c2)CSC[C@@H](C(N)=O)NC(=O)[C@H](CCCNC(=N)N)NC(=O)[C@H](Cc2c[nH]c3ccccc23)NC(=O)[C@H]([C@@H](C)O)NC1=O [3BP-3599] ({DOTA}-[X2]VYCE[dP]DWLTWRC-NH2; linker 4-13 via mXylylene) | – | B (t1/2 between 5.1 and 15.0 minutes) | < 10 nM | – | – | 52% | < 10 nM
CC(C)C[C@@H]1NC(=O)[C@H](Cc2c[nH]c3ccccc23)NC(=O)[C@H](CSCc2ccccc2)NC(=O)[C@H]2CCCN2C(=O)[C@H](CCC(=O)O)NC(=O)[C@@H](NC(=O)[C@H](Cc2ccc(O)cc2)NC(=O)[C@@H](NC(=O)CN2CCC(NC(=O)CN3CCN(CC(=O)O)CCN(CC(=O)O)CCN(CC(=O)O)CC3)CC2)C(C)C)CSCc2cccc(c2)CSC[C@@H](C(N)=O)NC(=O)[C@H](CO)NC(=O)[C@H](Cc2c[nH]c3ccccc23)NC(=O)[C@H]([C@@H](C)O)NC1=O [3BP-4128] ({DOTA}-[X2]VYCE[dP]C(Bn)WLTWSC-NH2; linker 4-13 via mXylylene) | 87% | A (t1/2>15.0 minutes) | < 10 nM | – | < 10 nM | – | –
CC(=O)N[C@@H](CCCCNC(=O)CN1CCN(CC(=O)O)CCN(CC(=O)O)CCN(CC(=O)O)CC1)C(=O)N[C@H](C(=O)N[C@@H](Cc1ccc(O)cc1)C(=O)N[C@H]1CSCc2cccc(c2)CSC[C@@H](C(N)=O)NC(=O)[C@H](CO)NC(=O)[C@H](Cc2c[nH]c3ccccc23)NC(=O)[C@H]([C@@H](C)O)NC(=O)[C@H](CC(C)C)NC(=O)[C@H](Cc2c[nH]c3ccccc23)NC(=O)[C@H](CC(=O)O)NC(=O)[C@H]2CCCN2C(=O)[C@H](CCC(=O)O)NC1=O)C(C)C [3BP-3840] (Ac-K(DOTA)VYCE[dP]DWLTWSC-NH2; linker 4-13 via mXylylene) | >95% | B (t1/2 between 5.1 and 15.0 minutes) | < 10 nM | – | – | – | < 10 nM
CC(C)C[C@@H]1NC(=O)[C@H](Cc2c[nH]c3ccccc23)NC(=O)[C@H](CC(=O)O)NC(=O)[C@H]2CCCN2C(=O)[C@H](CCC(=O)O)NC(=O)[C@@H](NC(=O)[C@H](CCC(=O)NC[C@H](O)[C@@H](O)[C@H](O)[C@H](O)CO)NC(=O)[C@@H](NC(=O)CN2CCC(NC(=O)CN3CCN(CC(=O)O)CCN(CC(=O)O)CCN(CC(=O)O)CC3)CC2)C(C)C)CSCc2cccc(c2)CSC[C@@H](C(N)=O)NC(=O)[C@H](CO)NC(=O)[C@H](Cc2c[nH]c3ccccc23)NC(=O)[C@H]([C@@H](C)O)NC1=O [3BP-4112] ({DOTA}-[X2]VE(NH(1-deoxy-D-glucityl))CE[dP]DWLTWSC-NH2; linker 4-13 via mXylylene) | >95% | B (t1/2 between 5.1 and 15.0 minutes) | < 10 nM | – | < 10 nM | – | –
CC(=O)N[C@@H](CO)C(=O)N[C@@H](Cc1ccc(O)cc1)C(=O)N[C@H]1CSCc2cccc(c2)CSC[C@@H](C(N)=O)NC(=O)[C@H](CCC(=O)NCCCNC(=O)COCCOCCNC(=O)CN2CCN(CC(=O)O)CCN(CC(=O)O)CCN(CC(=O)O)CC2)NC(=O)[C@H](Cc2c[nH]c3ccccc23)NC(=O)[C@H]([C@@H](C)O)NC(=O)[C@H](CC(C)C)NC(=O)[C@H](Cc2c[nH]c3ccccc23)NC(=O)[C@H](CC(=O)O)NC(=O)[C@H]2CCCN2C(=O)[C@H](CCC(=O)O)NC1=O [3BP-3732] (Ac-SYCE[dP]DWLTWE(NH(CH2)3NH(O2Oc(DOTA)))C-NH2; linker 3-12 via mXylylene) | >95% | B (t1/2 between 5.1 and 15.0 minutes) | < 10 nM | – | – | – | < 10 nM
CC(C)C[C@@H]1NC(=O)[C@H](Cc2c[nH]c3ccccc23)NC(=O)[C@H](CC(=O)O)NC(=O)[C@H]2CCCN2C(=O)[C@H](CCCN(C)C)NC(=O)[C@@H](NC(=O)[C@H](Cc2ccc(O)cc2)NC(=O)[C@@H](NC(=O)CN2CCC(NC(=O)CN3CCN(CC(=O)O)CCN(CC(=O)O)CCN(CC(=O)O)CC3)CC2)C(C)C)CSCc2cccc(c2)CSC[C@@H](C(N)=O)NC(=O)[C@H](CO)NC(=O)[C@H](Cc2c[nH]c3ccccc23)NC(=O)[C@H]([C@@H](C)O)NC1=O [3BP-4096] ({DOTA}-[X2]VYC[Orn(Me2)][dP]DWLTWSC-NH2; linker 4-13 via mXylylene) | 93% | B (t1/2 between 5.1 and 15.0 minutes) | < 10 nM | – | < 10 nM | – | –
CC(C)[C@H](NC(=O)CN1CCC(NC(=O)CN2CCN(CC(=O)O)CCN(CC(=O)O)CCN(CC(=O)O)CC2)CC1)C(=O)N[C@@H](Cc1ccc(O)cc1)C(=O)N[C@H]1CSCc2cccc(c2)CSC[C@@H](C(N)=O)NC(=O)[C@H](CO)NC(=O)[C@H](Cc2c[nH]c3ccccc23)NC(=O)[C@H]([C@@H](C)O)NC(=O)C2(CCCCC2)NC(=O)[C@H](Cc2c[nH]c3ccccc23)NC(=O)[C@H](CC(=O)O)NC(=O)[C@H]2CCCN2C(=O)[C@H](CCC(=O)O)NC1=O [3BP-3584] ({DOTA}-[X2]VYCE[dP]DW[Ac6c]TWSC-NH2; linker 4-13 via mXylylene) | >95% | B (t1/2 between 5.1 and 15.0 minutes) | < 10 nM | – | – | – | < 10 nM

Next, values leading:

% intact compound remaining (incubation time) ([1]; 24 h) | t1/2 category (activity) [2] | Kd [2] | IC50 ([3]; FACS binding assay, HT-29 cells, competition with tracer 3BP-4149 (3 nM, Cy5-labeled)) | IC50 [3, 4] | % intact compound remaining (incubation time) ([1]; 6 h) | IC50 [3, 5] | SMILES
>95% | A (t1/2>15.0 minutes) | < 10 nM | < 10 nM | – | – | – | CC(C)C[C@@H]1NC(=O)[C@H](Cc2c[nH]c3ccccc23)NC(=O)[C@H](CC(=O)O)NC(=O)[C@H]2CCCN2C(=O)[C@H](CCC(=O)O)NC(=O)[C@@H]2CSCc3cccc(c3)CSC[C@@H](C(N)=O)NC(=O)[C@H](CNC(=O)C[C@H](NC(=O)[C@@H](NC(=O)CN3CCN(CC(=O)O)CCN(CC(=O)O)CCN(CC(=O)O)CC3)C(C)C)C(=O)N2)NC(=O)[C@H](Cc2c[nH]c3ccccc23)NC(=O)[C@H]([C@@H](C)O)NC1=O [3BP-4264] ({DOTA}-VDCE[dP]DWLTW[Dap]C-NH2; lactam 2-11; linker 3-12 via mXylylene)
>95% | B (t1/2 between 5.1 and 15.0 minutes) | < 10 nM | – | < 10 nM | – | – | CC(C)C[C@@H]1NC(=O)[C@H](Cc2c[nH]c3ccccc23)NC(=O)[C@H](CC(=O)O)NC(=O)[C@H]2CCCN2C(=O)[C@H](CCC(=O)O)NC(=O)[C@@H]2CSCc3cccc(c3)CSC[C@@H](C(N)=O)NC(=O)[C@H](CNC(=O)C[C@H](NC(=O)CN3CCN(CC(=O)O)CCN(CC(=O)O)CCN(CC(=O)O)CC3)C(=O)N2)NC(=O)[C@H](Cc2c[nH]c3ccccc23)NC(=O)[C@H]([C@@H](C)O)NC1=O [3BP-4253] ({DOTA}-DCE[dP]DWLTW[Dap]C-NH2; lactam 1-10; linker 2-11 via mXylylene)
94% | C (t1/2 between 2.1 and 5.0 minutes) | < 10 nM | – | < 10 nM | – | – | CC(C)C[C@@H]1NC(=O)[C@H](Cc2c[nH]c3ccccc23)NC(=O)[C@H](CC(=O)O)NC(=O)[C@H]2CCCN2C(=O)[C@H](CCC(=O)O)NC(=O)[C@@H]2CSCc3cccc(c3)CSC[C@@H](C(N)=O)NC(=O)[C@H](CNC(=O)C[C@H](NC(=O)[C@H](CO)NC(=O)CN3CCN(CC(=O)O)CCN(CC(=O)O)CCN(CC(=O)O)CC3)C(=O)N2)NC(=O)[C@H](Cc2c[nH]c3ccccc23)NC(=O)[C@H]([C@@H](C)O)NC1=O [3BP-4257] ({DOTA}-SDCE[dP]DWLTW[Dap]C-NH2; lactam 2-11; linker 3-12 via mXylylene)
93% | C (t1/2 between 2.1 and 5.0 minutes) | < 10 nM | – | < 10 nM | – | – | CC(C)C[C@@H]1NC(=O)[C@H](Cc2c[nH]c3ccccc23)NC(=O)[C@H](CC(=O)O)NC(=O)[C@H]2CCCN2C(=O)[C@H](CCC(=O)O)NC(=O)[C@@H]2CSCc3cccc(c3)CSC[C@@H](C(N)=O)NC(=O)[C@H](CNC(=O)C[C@H](NC(=O)[C@H]3CC[C@H](CNC(=O)CN4CCN(CC(=O)O)CCN(CC(=O)O)CCN(CC(=O)O)CC4)CC3)C(=O)N2)NC(=O)[C@H](Cc2c[nH]c3ccccc23)NC(=O)[C@H]([C@@H](C)O)NC1=O [3BP-4258] ({DOTA-Trx}-DCE[dP]DWLTW[Dap]C-NH2; lactam 1-10; linker 2-11 via mXylylene)
>95% | B (t1/2 between 5.1 and 15.0 minutes) | < 10 nM | – | – | – | < 10 nM | CC(=O)N[C@H](C(=O)N[C@@H](Cc1ccccc1)C(=O)N[C@H]1CSCc2cccc(c2)CSC[C@@H](C(N)=O)NC(=O)[C@H](CCC(=O)NCCCNC(=O)CN2CCN(CC(=O)O)CCN(CC(=O)O)CCN(CC(=O)O)CC2)NC(=O)[C@H](Cc2c[nH]c3ccccc23)NC(=O)[C@H]([C@@H](C)O)NC(=O)[C@H](CC(C)C)NC(=O)[C@H](Cc2c[nH]c3ccccc23)NC(=O)[C@H](CC(=O)O)NC(=O)[C@H]2CCCN2C(=O)[C@H](CCC(=O)O)NC1=O)C(C)C [3BP-3874] (Ac-VFCE[dP]DWLTWE(NH(CH2)3NHDOTA)C-NH2; linker 3-12 via mXylylene)
